Drawing on patent US10669240B2, “5-substituted indazole-3-carboxamides and preparation and use thereof” (Samumed, LLC, priority 2014, dated 2020), this text covers IC50 and EC50 for 25 molecules.

pEC50, pIC50: −log10 of the molar value.

For assay [1], the system named is Wnt activity (Wnt-responsive SP5 promoter luciferase reporter in SW480 cells). Kind of assay: Wnt activity reporter assay: SW480 cells with SP5 promoter-driven firefly luciferase. The conditions noted are these: Homo sapiens, 24 h after compound addition, read-out: Wnt inhibition. The class given is cell-based. From the text:
The above synthesized compounds were screened using the assay procedure for Wnt activity described below.
Reporter cell lines were generated by stably transducing cells of cancer cell lines (e.g., colon cancer) with a lentiviral construct that include a Wnt-responsive promoter driving expression of the firefly luciferase gene.
Lentiviral constructs were made in which the SP5 promoter, a promoter having eight TCF/LEF binding sites derived from the SP5 promoter, was linked upstream of the firefly luciferase gene. The lentiviral constructs included a hygromycin resistance gene as a selectable marker. The SP5 promoter construct was used to transduce SW480 cells, a colon cancer cell line having a mutated APC gene that generates a truncated APC protein, leading to de-regulated accumulation of β-catenin.
Cultured SW480 cells bearing a reporter construct were distributed at approximately 10,000 cells per well into 384 well multiwell plates. Compounds were then added to the wells in half-log dilutions using a three micromolar top concentration. A series of control wells for each cell type received only buffer and compound solvent. Twenty-four hours after the addition of compound, reporter activity for luciferases was assayed, for example, by addition of the BrightGlo luminescence reagent (Promega) and the Victor3 plate reader (Perkin Elmer). Readings were normalized to DMSO only treated cells, and normalized activities were then used for the IC50 calculations.

Another assay has as its target DYRK1A (Homo sapiens (Human), UniProt Q13627). Kind of assay: DYRK1A activity Tau assay: pSer396 Tau in SH-SY5Y cells by ELISA / western blot. Particulars: overnight (16-18 h) exposure. In kind it is cell-based. On the technique in general: ELISA stands for enzyme-linked immunosorbent assay.

Take `CN(C)CCNC(=O)c1n[nH]c2ccc(-c3cccnc3)cc12` [Compound 1259, N-(2-(Dimethylamino)ethyl)-5-(pyridin-3-yl)-1H-indazole-3-carboxamide]: the pIC50 in assay [1] is 5.74. Moreover, on DYRK1A, the negative logarithm of the EC50 (pEC50) (usually the EC50 on a negative log10 scale, so that one unit is a factor of ten) was 7.70.
With `CC(C)OCCCNC(=O)c1n[nH]c2ccc(-c3cccnc3)cc12` [Compound 1261, N-(3-Isopropoxypropyl)-5-(pyridin-3-yl)-1H-indazole-3-carboxamide], in assay [1], the pIC50 is 6.00. The pEC50 on DYRK1A is 8.30.
Consider `Cc1ccc(-c2ccc3[nH]nc(C(=O)NCCCOC(C)C)c3c2)cn1` [Compound 1262, N-(3-Isopropoxypropyl)-5-(6-methylpyridin-3-yl)-1H-indazole-3-carboxamide], for which, in assay [1], the pIC50 was 5.74. For the same molecule, the pEC50 on DYRK1A is 7.22.
For `CC(C)OCCCNC(=O)c1n[nH]c2ccc(-c3cccc(F)c3F)cc12` [Compound 1264, 5-(2,3-Difluorophenyl)-N-(3-isopropoxypropyl)-1H-indazole-3-carboxamide], in assay [1], the pIC50 was 5.68. Also, the pEC50 on DYRK1A is 6.58.
For the molecule `O=C(NCCN1CCCCC1)c1n[nH]c2ccc(-c3cccnc3)cc12` [Compound 1265, N-(2-(Piperidin-1-yl)ethyl)-5-(pyridin-3-yl)-1H-indazole-3-carboxamide], the pIC50 in assay [1] was 5.92. This molecule gave a pEC50 on DYRK1A of 7.77.
Take `O=C(NCCN1CCOCC1)c1n[nH]c2ccc(-c3cccnc3)cc12` [Compound 1267, N-(2-Morpholinoethyl)-5-(pyridin-3-yl)-1H-indazole-3-carboxamide]: in assay [1], the pIC50 was 5.82. This molecule also had a pEC50 at DYRK1A of 8.30.
On to `CN1CC(NC(=O)c2n[nH]c3ccc(-c4cccc(F)c4F)cc23)C1` [Compound 1272, 5-(2,3-Difluorophenyl)-N-(1-methylazetidin-3-yl)-1H-indazole-3-carboxamide], for which the pIC50 in assay [1] was 5.66. Further, the pEC50 at DYRK1A was 7.25.
The matching figures for `CC(C)CN1CC(NC(=O)c2n[nH]c3ccc(-c4cncc(Cl)c4)cc23)C1` [Compound 1273, 5-(5-Chloropyridin-3-yl)-N-(1-isobutylazetidin-3-yl)-1H-indazole-3-carboxamide]: 5.48 and 7.64.
As for `CC(C)CN1CC(NC(=O)c2n[nH]c3ccc(-c4cncc(C(F)F)c4)cc23)C1` [Compound 1274, 5-(5-(Difluoromethyl)pyridin-3-yl)-N-(1-isobutylazetidin-3-yl)-1H-indazole-3-carboxamide], the pIC50 in assay [1] was 5.92. For the same molecule, the pEC50 on DYRK1A is 7.70.
On to `CC(C)CN1CC(NC(=O)c2n[nH]c3ccc(-c4cncc(F)c4)cc23)C1` [Compound 1275, 5-(5-Fluoropyridin-3-yl)-N-(1-isobutylazetidin-3-yl)-1H-indazole-3-carboxamide], for which the pIC50 in assay [1] was 5.57. On DYRK1A, this molecule had a pEC50 of 7.55.
On the same counts, the results for `CN1CCC2(CC1)CC(NC(=O)c1n[nH]c3ccc(-c4cncc(Cl)c4)cc13)C2` [Compound 1276, 5-(5-Chloropyridin-3-yl)-N-(7-methyl-7-azaspiro[3.5]nonan-2-yl)-1H-indazole-3-carboxamide] are 5.28 and 8.15.
Consider `CN1CCC2(CC1)CC(NC(=O)c1n[nH]c3ccc(-c4cccc(F)c4F)cc13)C2` [Compound 1278, 5-(2,3-Difluorophenyl)-N-(7-methyl-7-azaspiro[3.5]nonan-2-yl)-1H-indazole-3-carboxamide], for which the pIC50 in assay [1] was 5.26. In addition, the pEC50 on DYRK1A is 7.85.
In the case of `O=C(NC1CCC(F)(F)CC1)c1n[nH]c2ccc(-c3cccnc3)cc12` [Compound 1283, N-(4,4-Difluorocyclohexyl)-5-(pyridin-3-yl)-1H-indazole-3-carboxamide], in assay [1], the pIC50 was 5.89. This molecule had a pEC50 on DYRK1A of 8.70.
Turning to `N[C@H]1CC[C@@H](NC(=O)c2n[nH]c3ccc(-c4cccnc4)cc23)CC1` [Compound 1285, N-((1s,4s)-4-Aminocyclohexyl)-5-(pyridin-3-yl)-1H-indazole-3-carboxamide], the pIC50 in assay [1] was under 5.00. In addition, the pEC50 on DYRK1A was 7.46.
Take `N[C@H]1CC[C@H](NC(=O)c2n[nH]c3ccc(-c4cccnc4)cc23)CC1` [Compound 1286, N-((1r,4r)-4-Aminocyclohexyl)-5-(pyridin-3-yl)-1H-indazole-3-carboxamide]: the pIC50 in assay [1] was 5.43. Moreover, the pEC50 at DYRK1A is 8.70.
As to `CN(C)[C@H]1CC[C@@H](NC(=O)c2n[nH]c3ccc(-c4cccnc4)cc23)CC1` [Compound 1287, N-((1s,4s)-4-(Dimethylamino)cyclohexyl)-5-(pyridin-3-yl)-1H-indazole-3-carboxamide], the pIC50 in assay [1] is under 5.00. This molecule also showed a pEC50 at DYRK1A of 7.43.
Turning to `CN(C)[C@H]1CC[C@H](NC(=O)c2n[nH]c3ccc(-c4cccnc4)cc23)CC1` [Compound 1288, N-((1r,4r)-4-(Dimethylamino)cyclohexyl)-5-(pyridin-3-yl)-1H-indazole-3-carboxamide], the pIC50 in assay [1] is 5.86. This molecule gave a pEC50 at DYRK1A of 9.00.
On the same counts, the results for `CCN1CCC(NC(=O)c2n[nH]c3cc(F)c(-c4cncc5ccccc45)cc23)CC1` [Compound 1293, N-(1-Ethylpiperidin-4-yl)-6-fluoro-5-(isoquinolin-4-yl)-1H-indazole-3-carboxamide] are 5.67 and 6.68.
The matching figures for `O=C(NC1CCN(CCF)CC1)c1n[nH]c2ccc(-c3cncc4ccccc34)cc12` [Compound 1297, N-(1-(2-Fluoroethyl)piperidin-4-yl)-5-(isoquinolin-4-yl)-1H-indazole-3-carboxamide]: 5.66 and 7.52.
On to `O=C(NC1CCN(CC(F)F)CC1)c1n[nH]c2ccc(-c3cncc(F)c3)cc12` [Compound 1298, N-(1-(2,2-Difluoroethyl)piperidin-4-yl)-5-(5-fluoropyridin-3-yl)-1H-indazole-3-carboxamide], for which the pIC50 in assay [1] is 5.92. Moreover, the pEC50 on DYRK1A is 7.55.
On to `CC(C)(F)CN1CCC(NC(=O)c2n[nH]c3ccc(-c4cccnc4)cc23)CC1` [Compound 1309, N-(1-(2-Fluoro-2-methylpropyl)piperidin-4-yl)-5-(pyridin-3-yl)-1H-indazole-3-carboxamide], for which, in assay [1], the pIC50 was 5.65. At DYRK1A, the pEC50 is 8.15.
Consider `O=C(NC1CCN(CC2CC2)CC1)c1n[nH]c2ccc(-c3cncc(Cl)c3)cc12` [Compound 1313, 5-(5-Chloropyridin-3-yl)-N-(1-(cyclopropylmethyl)piperidin-4-yl)-1H-indazole-3-carboxamide], for which the pIC50 in assay [1] was 5.74. The same molecule gave a pEC50 at DYRK1A of 7.48.
Consider `NC1CN(c2cncc(-c3ccc4[nH]nc(C(=O)Nc5cccc(F)c5)c4c3)n2)C1` [Compound 1318, 5-(6-(3-Aminoazetidin-1-yl)pyrazin-2-yl)-N-(3-fluorophenyl)-1H-indazole-3-carboxamide], for which, in assay [1], the pIC50 was 5.40. On DYRK1A, this molecule gave a pEC50 of 8.22.
On the same counts, the results for `O=C(Nc1ccc(CN2CCCC2)cc1)c1n[nH]c2ccc(-c3cccc(F)c3F)cc12` [Compound 1327, 5-(2,3-Difluorophenyl)-N-(4-(pyrrolidin-1-ylmethyl)phenyl)-1H-indazole-3-carboxamide] are 5.82 and 7.51.
The matching figures for `O=C(Nc1ccc(CN2CCCC2)cc1)c1n[nH]c2ccc(-c3cncnc3)cc12` [Compound 1328, 5-(Pyrimidin-5-yl)-N-(4-(pyrrolidin-1-ylmethyl)phenyl)-1H-indazole-3-carboxamide]: 5.43 and 8.40.
